Assay results published in patent EP0218688B1, “DIHALO-STATINE SUBSTITUTED RENIN INHIBITORS” (THE UPJOHN COMPANY, priority 1985, dated 1986).

Molecular target: T1, renin (Homo sapiens, UniProt P00797)
T1 construct: Lyophilized human plasma with 0.1% EDTA is obtained from New England Nuclear; tissue New England Nuclear Plasma Renin Activity Control; host or cells: human plasma (lyophilized, reconstituted)
T1 sequence (P00797 67-406): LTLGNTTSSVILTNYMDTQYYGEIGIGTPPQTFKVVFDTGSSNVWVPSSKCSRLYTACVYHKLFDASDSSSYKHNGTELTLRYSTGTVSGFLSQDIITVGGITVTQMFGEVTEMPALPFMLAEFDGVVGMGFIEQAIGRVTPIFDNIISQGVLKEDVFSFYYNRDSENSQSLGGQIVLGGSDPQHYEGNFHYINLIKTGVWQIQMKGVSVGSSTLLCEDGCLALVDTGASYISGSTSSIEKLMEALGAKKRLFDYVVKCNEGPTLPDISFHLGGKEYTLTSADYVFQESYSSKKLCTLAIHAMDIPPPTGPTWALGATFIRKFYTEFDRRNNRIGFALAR
Assay: GAMMACOAT plasma renin activity (PRA) radioimmunoassay, inhibition of angiotensin I generation in reconstituted human plasma
Assay type: biochemical
Settings: I50 of RIP compared with I50 of the compound, RIP value of the same assay day
Method: Lyophilized human plasma with 0.1% EDTA is obtained from New England Nuclear, North Billerica, Massachusetts 01862 as "Plasma Renin Activity Control". This lyophilized plasma is reconstituted, on the day of the assay, with cold sterile distilled water according to directions on the vial. The plasma renin activity (PRA) of the reconstituted plasma is assayed with "GAMMACOAT [^125 Plasma Renin Activity Radioimmunoassay Kit" supplied by Clinical Assays, a Division of Travenol Laboratories, Inc., Cambridge, Massachusetts 02139. The procedure used with these kits is carried out essentially as described in the literature which accompanies them. […]
In the case of renin inhibitory peptide (RIP), […] of the 4°C. blank is added to a GAMMACOAT® tube. […] The tubes are then counted in a gamma counter. The results of the RIP are evaluated with the Rodbard Radioimmunoassay Program and the plasma renin activity (PRA) is expressed as […]. […] In addition to l50 values, relative potencies are also calculated. A relative potency is determined by comparing the 150 of RIP to the l50 of the compound. However, it must be emphasized that relative potencies are calculated from the l50 obtained for RIP on the day the compound is assayed and not from the average 15o for RIP.

relative potency | Structure (SMILES)
6100 | CC[C@H](C)[C@H](NC(=O)C(F)(F)C(=O)C(CC(C)C)NC(=O)[C@H](Cc1c[nH]cn1)NC(=O)[C@H](Cc1ccccc1)NC(=O)OC(C)(C)C)C(=O)NCc1ccccn1 (stereo partly drawn) [N-tert-Butyloxycarbonyl-L-phenylalanyl-L-histidyl-2,2-difluoro-statonyl-L-isoleucyl-2-pyridylmethylamide]
1,000 | CC[C@H](C)[C@H](NC(=O)C(F)(F)[C@H](O)[C@H](CC(C)C)NC(=O)[C@H](Cc1c[nH]cn1)NC(=O)[C@H](Cc1ccccc1)NC(=O)OC(C)(C)C)C(=O)NCc1ccccn1 [N-tert-Butyloxycarbonyl-L-phenylalanyl-L-histidyl-2,2-difluoro-statyl-L-isoleucyl-2-pyridylmethylamide]
